We go through 18 compounds from patent US6903095B2, “Phthalimido derivatives and a process for their preparation” (Hoffmann-La Roche Inc., priority 2002, dated 2005).

Structures can show the parent of a compound that is named as a salt.

Assay [1] deals with T1, human MAO-B (Homo sapiens, UniProt P27338).
T1 construct: expressed in transfected cells; host or cells: EBNA cells (transient transfection; cell membranes used)
T1 sequence (P27338 1-520): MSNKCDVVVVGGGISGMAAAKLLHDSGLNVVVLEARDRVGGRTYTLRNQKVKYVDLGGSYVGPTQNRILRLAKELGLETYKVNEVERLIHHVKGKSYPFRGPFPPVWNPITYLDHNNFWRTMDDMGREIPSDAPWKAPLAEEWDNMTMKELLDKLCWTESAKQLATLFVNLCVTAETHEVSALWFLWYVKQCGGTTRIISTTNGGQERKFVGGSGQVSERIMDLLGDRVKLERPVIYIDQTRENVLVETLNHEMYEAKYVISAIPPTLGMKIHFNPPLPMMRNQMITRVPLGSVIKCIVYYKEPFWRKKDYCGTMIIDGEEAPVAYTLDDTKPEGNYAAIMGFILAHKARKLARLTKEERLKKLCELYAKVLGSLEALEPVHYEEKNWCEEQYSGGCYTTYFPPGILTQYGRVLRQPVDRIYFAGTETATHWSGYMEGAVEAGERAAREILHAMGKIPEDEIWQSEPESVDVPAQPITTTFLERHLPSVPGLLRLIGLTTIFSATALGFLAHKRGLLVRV
The assay is described as follows: MAO-B enzymatic activity, spectrophotometric assay (Amplex Red, tyramine substrate) on membranes of transfected EBNA cells. Type of assay: biochemical. Conditions: 30 min preincubation at 37° C., pH 7.4, tyramine substrate. On the procedure: (§1) The cDNA's encoding human MAO-A and MAO-B were transiently transfected into EBNA cells using the procedure described by E.-J. Schlaeger and K. Christensen (Transient Gene Expression in Mammalian Cells Grown in Serum-free Suspension Culture; Cytotechnology, 15: 1-13, 1998). After transfection, cells were homogenized by means of a Polytron homogenizer in 20 mM Tris HCl buffer, pH 8.0, containing 0.5 mM EGTA and 0.5 mM phenylmethanesulfonyl fluoride. Cell membranes were obtained by centrifugation at 45,000×g and, after two rinsing step with 20 mM Tris HCl buffer, pH 8.0, containing 0.5 mM EGTA, membranes were eventually re-suspended in the above buffer and aliquots stored at −80° C. until use.
(§2) MAO-A and MAO-B enzymatic activity was assayed in 96-well-plates using a spectrophotometric assay adapted from the method described by M. Zhou and N. Panchuk-Voloshina (A One-Step Fluorometric Method for the Continuous Measurement of Monoamine Oxidase Activity, Analytical Biochemistry, 253: 169-174, 1997). Briefly, membrane aliquots were incubated in 0.1 M potassium phosphate buffer, pH 7.4, for 30 min at 37° C. with or without various concentrations of the compounds. After this period, the enzymatic reaction was started by the addition of the MAO substrate tyramine together with 1 U/ml horse-radish peroxidase (Roche Biochemicals) and 80 μM N-acetyl-3,7,-dihydroxyphenoxazine (Amplex Red, Molecular Probes). The samples were further incubated for 30 min at 37° C. in a final volume of 200 μl and absorbance was then determined at a wavelength of 570 nm using a SpectraMax plate reader (Molecular Devices). Background (non-specific) absorbance was determined in the presence of 10 μM clorgyline for MAO-A or 10 μM L-deprenyl for MAO-B.
(§3) IC50 values were determined from inhibition curves obtained using nine inhibitor concentrations in duplicate, by fitting data to a four parameter logistic equation using a computer program.

The target in assay [2] is T2, human MAO-A (Homo sapiens, UniProt P21397).
T2 construct: expressed in transfected cells; host or cells: EBNA cells (transient transfection; cell membranes used)
T2 sequence (P21397 1-527): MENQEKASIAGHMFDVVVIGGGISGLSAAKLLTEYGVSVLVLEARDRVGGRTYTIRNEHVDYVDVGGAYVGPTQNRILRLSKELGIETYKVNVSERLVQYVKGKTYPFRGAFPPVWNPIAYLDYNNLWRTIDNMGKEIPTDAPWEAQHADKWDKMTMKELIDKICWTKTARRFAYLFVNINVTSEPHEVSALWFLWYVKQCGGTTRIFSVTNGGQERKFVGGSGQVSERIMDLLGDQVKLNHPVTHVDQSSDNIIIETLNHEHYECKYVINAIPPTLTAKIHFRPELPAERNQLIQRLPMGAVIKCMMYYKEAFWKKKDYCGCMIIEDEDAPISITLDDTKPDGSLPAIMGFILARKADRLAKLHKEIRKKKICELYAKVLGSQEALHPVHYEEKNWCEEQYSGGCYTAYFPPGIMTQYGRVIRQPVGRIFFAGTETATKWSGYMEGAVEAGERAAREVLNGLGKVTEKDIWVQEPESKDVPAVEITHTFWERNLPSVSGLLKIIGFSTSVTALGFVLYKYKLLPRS
The assay is described as follows: MAO-A enzymatic activity, spectrophotometric assay (Amplex Red, tyramine substrate) on membranes of transfected EBNA cells. Type of assay: biochemical. The settings on record: 30 min preincubation at 37° C., pH 7.4, tyramine substrate. On the procedure:
as §1, §2, §3

For orientation: IC50 means the midpoint of a concentration-inhibition curve. Low values mean greater potency in that assay, high ones weaker potency in that assay.

As to `O=C1c2ccc(OCc3ccc(F)cc3)cc2C(=O)N1CCO` [Example 12, 5-(4-Fluoro-benzyloxy)-2-(2-hydroxy-ethyl)-isoindole-1,3-dione], the values for the half-maximal inhibitory concentration (IC50) in assay [1] and in assay [2] were 4 nM and 369 nM, respectively.

Consider `NC(=O)CC(O)CN1C(=O)c2ccc(OCc3ccc(F)cc3)cc2C1=O` (stereo not drawn) [Example 22, 4-[5-(4-Fluoro-benzyloxy)-1,3-dioxo-1,3-dihydro-isoindol-2-yl]-3-hydroxy-butyramide], for which the concentration for half-maximal inhibition (IC50) in assay [1] is 97 nM; in assay [2], more than 10000 nM.

With `CCSCCN1C(=O)c2ccc(OCc3ccc(F)cc3)cc2C1=O` [Example 19, 2-(2-Ethylsulfanyl-ethyl)-5-(4-fluoro-benzyloxy)-isoindole-1,3-dione], the IC50 in assay [1] is 11 nM; in assay [2], more than 10000 nM.

For the compound `NC(=O)[C@H](CO)N1C(=O)c2ccc(OCc3cccc(F)c3)cc2C1=O` [Example 52, (S)-2-[5-(3-Fluoro-benzyloxy)-1,3-dioxo-1,3-dihydro-isoindol-2-yl]-3-hydroxy-propionamide], the 50% inhibitory concentration (IC50) in assay [1] is 20 nM; in assay [2], more than 10000 nM.

Take `C[C@@H](C(N)=O)N1C(=O)c2ccc(OCc3cccc(F)c3)cc2C1=O` [Example 44, (S)-2-[5-(3-Fluoro-benzyloxy)-1,3-dioxo-1,3-dihydro-isoindol-2-yl]-propionamide]: the values for the 50% inhibitory concentration (IC50) in assay [1] and in assay [2] were 7 nM and 5760 nM, respectively.

Turning to `NCCN1C(=O)c2ccc(OCc3cccc(F)c3)cc2C1=O` [Example 50, 2-(2-Amino-ethyl)-5-(3-fluoro-benzyloxy)-isoindole-1,3-dione 1:1 hydrochloride], the IC50 in assay [1] was 39 nM; in assay [2] it was more than 10000 nM.

For the compound `COC[C@H](C)N1C(=O)c2ccc(OCc3ccc(C#N)cc3)cc2C1=O` [Example 30, (S)-4-[2-(2-Methoxy-1-methyl-ethyl)-1,3-dioxo-2,3-dihydro-1H-isoindol-5-yloxymethyl]-bezonitrile], the IC50 was determined as 129 nM in assay [1] and 6200 nM in assay [2].

For `COC(CN1C(=O)c2ccc(OCc3ccc(F)cc3)cc2C1=O)C(F)(F)F` (stereo not drawn) [Example 43], the IC50 in assay [1] is 45 nM; in assay [2], more than 10000 nM.

For the compound `C[C@@H](C(N)=O)N1C(=O)c2ccc(OCc3ccc(F)cc3)cc2C1=O` [Example 2, (S)-2-[5-(4-Fluoro-benzyloxy)-1,3-dioxo-1,3-dihydro-isoindol-2-yl]-propionamide], the IC50 is 8 nM in assay [1] and 776 nM in assay [2].

For `NC(=O)[C@H](CO)N1C(=O)c2ccc(OCc3ccc(F)cc3)cc2C1=O` [Example 14, (S)-2-[5-(4-Fluoro-benzyloxy)-1,3-dioxo-1,3-dihydro-isoindol-2-yl]-3-hydroxy-propionamide], the values for the half-maximal inhibitory concentration (IC50) in assay [1] and in assay [2] were 17 nM and more than 10000 nM, respectively.

Regarding `NCCN1C(=O)c2ccc(OCc3ccc(F)cc3)cc2C1=O` [Example 9, 2-(2-Amino-ethyl)-5-(4-fluoro-benzyloxy)-isoindole-1,3-dione 1:1 hydrochloride], the IC50 in assay [1] was 32 nM; in assay [2], more than 10000 nM.

In the case of `O=C1c2ccc(OCc3ccc(F)cc3)cc2C(=O)N1Cc1cccs1` [Example 34, 5-(4-Fluoro-benzyloxy)-2-thiophen-2-ylmethyl-isoindole-1,3-dione], the IC50 in assay [1] was 81 nM; in assay [2] it was more than 10000 nM.

For `N#CCN1C(=O)c2ccc(OCc3ccc(F)cc3)cc2C1=O` [Example 7], the half-maximal inhibitory concentration (IC50) in assay [1] is 34 nM; in assay [2] it was more than 10000 nM.

Regarding `COC[C@H](C)N1C(=O)c2ccc(OCc3cccc(OC)c3)cc2C1=O` [Example 29, (S)-5-(3-Methoxy-benzyloxy)-2-(2-methoxy-1-methyl-ethyl)-isoindole-1,3-dione], the half-maximal inhibitory concentration (IC50) is 69 nM in assay [1] and more than 10000 nM in assay [2].

Regarding `COC[C@H](C)N1C(=O)c2ccc(OCc3ccc(Br)cc3)cc2C1=O` [Example 28, (S)-5-(4-Bromo-benzyloxy)-2-(2-methoxy-1-methyl-ethyl)-isoindole-1,3-dione], the IC50 in assay [1] is 34 nM; in assay [2] it was more than 10000 nM.

`COC[C@H](C)N1C(=O)c2ccc(OCc3ccc(F)c(F)c3)cc2C1=O` [Example 31, (S)-5-(3,4-Difluoro-benzyloxy)-2-(2-methoxy-1-methyl-ethyl)-isoindole-1,3-dione]: the concentration for half-maximal inhibition (IC50) came out at 32 nM in assay [1] and 3500 nM in assay [2].

`CC[S+]([O-])CCN1C(=O)c2ccc(OCc3ccc(F)cc3)cc2C1=O` (stereo not drawn) [Example 38, 2-(2-Ethanesulfinyl-ethyl)-5-(4-fluoro-benzyloxy)-isoindole-1,3-dione]: the figures for the IC50 in assay [1] and in assay [2] were 115 nM and more than 10000 nM, respectively.

For `COC[C@H](C)N1C(=O)c2ccc(OCc3ccc(OC(F)(F)F)cc3)cc2C1=O` [Example 32, (S)-2-(2-Methoxy-1-methyl-ethyl)-5-(4-trifluoromethoxy-benzyloxy)-isoindole-1,3-dione], the IC50 is 47 nM in assay [1] and more than 10000 nM in assay [2].
